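Assay format: 96-well plates, 48-hour exposure. GI50 = concentration required for 50% inhibition of growth.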 The source made the active and inactive calls. Cut-off read from the data, not from the text of the source: active = GI50 up to about 1.1 µM and inactive = higher. Where a SMILES comes first, the peptide text is derived from it. [ ]: non-standard residue; d: D form. The star is where a group is joined. NMeAc5c = CNC1(C(=O)O)CCCC1; Boc = CC(C)(C)OC(=O)*; OBn = c1ccc(CO*)cc1
What was measured:
Test in all cases: NCI tumour cell line growth inhibition, 48 h
RPMI-8226 = system: RPMI-8226
IGROV-1 = system: IGROV-1
Malme-3M = system: Malme-3M
SNB-19 = system: SNB-19
LOX IMVI = system: LOX IMVI
HL-60 = system: HL-60
DMS-114 = system: DMS-114
EKVX = system: EKVX
786-0 = system: 786-0
UACC-62 = system: UACC-62
SF-268 = system: SF-268
SNB-75 = system: SNB-75
SK-MEL-5 = system: SK-MEL-5
SN12C = system: SN12C
SK-MEL-28 = system: SK-MEL-28
NCI-H23 = system: NCI-H23
HCT-116 = system: HCT-116
SF-539 = system: SF-539
RXF 393 = system: RXF 393
NCI/ADR-RES = system: NCI/ADR-RES

Measured: GI50

O=C1CCCCCCCCCCC1CN1CCCCC1 (configuration not stated)
inactive: RPMI-8226 > 100 µM | IGROV-1 74.3 µM | Malme-3M > 100 µM | SNB-19 > 100 µM | LOX IMVI 70.6 µM | HL-60 87.1 µM | DMS-114 60.5 µM | EKVX > 100 µM | 786-0 > 100 µM | UACC-62 88.9 µM | SF-268 > 100 µM | SNB-75 39.1 µM | SK-MEL-5 15 µM | SN12C > 100 µM | SK-MEL-28 41.6 µM | NCI-H23 26.9 µM | HCT-116 58.6 µM

COC1(OC)CC2C(=O)N(Cc3ccccc3)C1C(S(=O)(=O)c1ccccc1)C2C(C)S(=O)(=O)c1ccccc1 (configuration not stated)
inactive: RPMI-8226 > 100 µM | IGROV-1 > 100 µM | Malme-3M > 100 µM | SNB-19 > 100 µM | LOX IMVI > 100 µM | HL-60 > 100 µM | DMS-114 75.5 µM | SF-539 > 100 µM | EKVX 85.5 µM | 786-0 > 100 µM | UACC-62 > 100 µM | SF-268 > 100 µM | SK-MEL-5 > 100 µM | RXF 393 > 100 µM | SN12C > 100 µM | SK-MEL-28 > 100 µM | NCI-H23 > 100 µM | HCT-116 > 100 µM

C/C(=N/NC(=S)N1CCCCCC1)c1ccccc1O
inactive: RPMI-8226 2.48 µM | IGROV-1 3.72 µM | Malme-3M 2.59 µM | SNB-19 42.2 µM | NCI/ADR-RES 1.69 µM | LOX IMVI 2.07 µM | HL-60 2.25 µM | SF-539 3.86 µM | EKVX 14.9 µM | 786-0 1.89 µM | UACC-62 3.05 µM | SF-268 3.03 µM | SNB-75 16.4 µM | SK-MEL-5 4.05 µM | RXF 393 51.5 µM | SN12C 4.63 µM | SK-MEL-28 8.36 µM | NCI-H23 14 µM | HCT-116 3.11 µM

COc1ccc(-c2nc(Sc3c([N+](=O)[O-])ncn3C)n[nH]2)cc1
inactive: RPMI-8226 3.66 µM | IGROV-1 4.12 µM | Malme-3M 2.6 µM | SNB-19 13 µM | LOX IMVI 2.72 µM | DMS-114 2.41 µM | SF-539 1.87 µM | EKVX 20.7 µM | 786-0 3.27 µM | UACC-62 3.08 µM | SF-268 3.94 µM | SNB-75 4.92 µM | SK-MEL-5 2.65 µM | RXF 393 1.77 µM | SN12C 2.64 µM | SK-MEL-28 4.21 µM | NCI-H23 1.77 µM | HCT-116 2.81 µM

CN(c1ccccc1)c1nc(=[N+]2CCCC2)ss1.[O-][Cl+3]([O-])([O-])[O-]
inactive: RPMI-8226 > 100 µM | IGROV-1 > 100 µM | Malme-3M > 100 µM | SNB-19 > 100 µM | HL-60 > 100 µM | DMS-114 7.66 µM | EKVX > 100 µM | 786-0 6.5 µM | UACC-62 > 100 µM | SF-268 > 100 µM | SNB-75 > 100 µM | SK-MEL-5 > 100 µM | RXF 393 3.03 µM | SN12C > 100 µM | SK-MEL-28 > 100 µM | HCT-116 > 100 µM

Cc1cc(O)c(C(=O)O)c2c1C(=O)c1c(O)c(OCC(O)C(O)C(O)C(O)CO)c(O)c(O)c1C2=O.NCCNCCO (configuration not stated)
inactive: RPMI-8226 > 100 µM | IGROV-1 > 100 µM | Malme-3M > 100 µM | SNB-19 > 100 µM | LOX IMVI > 100 µM | DMS-114 > 100 µM | SF-539 > 100 µM | EKVX > 100 µM | 786-0 > 100 µM | UACC-62 > 100 µM | SF-268 > 100 µM | SNB-75 > 100 µM | SK-MEL-5 > 100 µM | RXF 393 > 100 µM | SN12C > 100 µM | SK-MEL-28 > 100 µM | NCI-H23 > 100 µM

N#CC1=C(c2ccccc2)NNC(c2ccc(Cl)cc2)CC1=O (configuration not stated)
inactive: RPMI-8226 29.9 µM | Malme-3M 32.4 µM | SNB-19 53.2 µM | LOX IMVI 32.8 µM | HL-60 17.6 µM | DMS-114 82.2 µM | SF-268 50.8 µM | SNB-75 14.8 µM | SK-MEL-5 20.9 µM | RXF 393 54.2 µM | SN12C 45.5 µM | SK-MEL-28 91.4 µM | NCI-H23 73.6 µM | HCT-116 49.3 µM

CC(Oc1ccc(OCC2CCCCC2)cc1)C(=O)NCc1ccco1 (configuration not stated)
inactive: IGROV-1 43.7 µM | Malme-3M 27 µM | SNB-19 74.3 µM | LOX IMVI 20.7 µM | HL-60 31.5 µM | DMS-114 18.4 µM | SF-539 37.7 µM | 786-0 34.6 µM | UACC-62 56 µM | SF-268 98.9 µM | SNB-75 25.6 µM | SK-MEL-5 15.7 µM | RXF 393 22.6 µM | SN12C 51.1 µM | SK-MEL-28 43.6 µM | HCT-116 26.4 µM

N#C/N=C(/N)NCc1ccccc1
inactive: RPMI-8226 > 100 µM | IGROV-1 > 100 µM | Malme-3M > 100 µM | LOX IMVI > 100 µM | HL-60 > 100 µM | DMS-114 > 100 µM | SF-539 > 100 µM | 786-0 > 100 µM | SF-268 > 100 µM | SNB-75 > 100 µM | SK-MEL-5 > 100 µM | SN12C > 100 µM | SK-MEL-28 > 100 µM | NCI-H23 > 100 µM | HCT-116 > 100 µM

CCOC(=O)[C@H]1Nc2ccc(C)cc2C2c3ccccc3CC21 (some centres not stated)
inactive: RPMI-8226 > 100 µM | IGROV-1 > 100 µM | Malme-3M > 100 µM | SNB-19 > 100 µM | LOX IMVI > 100 µM | DMS-114 > 100 µM | SF-539 > 100 µM | EKVX > 100 µM | 786-0 > 100 µM | UACC-62 > 100 µM | SF-268 > 100 µM | SNB-75 46.1 µM | SK-MEL-5 > 100 µM | RXF 393 31.6 µM | SN12C > 100 µM | SK-MEL-28 > 100 µM | NCI-H23 > 100 µM | HCT-116 > 100 µM

CN(C(=O)C(Cc1ccccc1)NC(=O)OC(C)(C)C)C1(C(=O)NC(Cc2ccccc2)C(=O)OCc2ccccc2)CCCC1 (stereo not drawn) (Boc-Phe-[NMeAc5c]-Phe-OBn; configuration not given here)
inactive: RPMI-8226 22.5 µM | IGROV-1 53.6 µM | Malme-3M > 100 µM | SNB-19 53.5 µM | NCI/ADR-RES 27.7 µM | LOX IMVI 45.1 µM | HL-60 24.9 µM | SF-539 74.3 µM | EKVX 59.6 µM | 786-0 40.9 µM | UACC-62 24.5 µM | SF-268 35.4 µM | SNB-75 > 100 µM | SK-MEL-5 59.6 µM | RXF 393 44.7 µM | SN12C 46.5 µM | SK-MEL-28 58.1 µM | NCI-H23 43.7 µM | HCT-116 30.6 µM
